± gives the standard deviation of the averaged measurements.
Assays:
Assay in all cases: level (log10 ratio to DMSO vehicle control); higher = higher biomarker level / cell amount than vehicle control
[1] = compound: C=CC(=O)OCC(F)(F)C(F)(F)C(F)(F)COC(=O)C=C [1H,1H,5H,5H-Perfluoro-1,5-pentanediol diacrylate]; conditions: 6700 nM; in DMSO
Protocol: (§1)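 BioMAP Diversity Plus panel of 12 human primary cell co-culture systems (3C, 4H, LPS, SAg, BT, BF4T, BE3C, CASM3C, HDF3CGF, KF3CT, MyoF, Mphg). Compounds were added 1 h before stimulation and left for 24 h (MyoF 48 h; BT 72 h for soluble read-outs or 6 d for IgG). Biomarkers were read by ELISA, cytotoxicity by SRB, PBMC viability and proliferation by Alamar Blue. Each well value was divided by the mean of 8 DMSO control wells on the same plate and log10 transformed; duplicate blinded samples were tested at 4 concentrations.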

[2] = compound: C=C(C)C(=O)OCCC(F)(F)C(F)(F)C(F)(F)C(F)(F)C(F)(F)C(F)(F)F [6:2 Fluorotelomer methacrylate]; conditions: in DMSO
Protocol: as §1

[3] = compound: NS(=O)(=O)C(F)(F)C(F)(F)C(F)(F)C(F)(F)C(F)(F)C(F)(F)F [Perfluorohexanesulfonamide]; conditions: in DMSO
Protocol: as §1

[4] = compound: NC(=O)C(F)(F)C(F)(F)C(F)(F)C(F)(F)C(N)=O [Octafluoroadipamide]; conditions: in DMSO
Protocol: as §1

[5] = compound: FC(F)(F)C(F)(F)C(F)(F)C(F)(F)C(F)(F)C(F)(F)C(F)(F)I [1-Iodopentadecafluoroheptane]; conditions: in DMSO
Protocol: as §1

[6] = compound: FC(F)(F)C(F)(F)C(F)(F)CC1CO1 [1H,1H-Heptafluorobutyl epoxide]; conditions: in DMSO
Protocol: as §1

Test System	level (log10) [1]	level (log10) ([2]; 6700 nM)	level (log10) ([2]; 20000 nM)	level (log10) ([2]; 60000 nM)	level (log10) ([3]; 6700 nM)	level (log10) ([3]; 20000 nM)	level (log10) ([3]; 60000 nM)	level (log10) ([4]; 6700 nM)	level (log10) ([4]; 20000 nM)	level (log10) ([4]; 60000 nM)	level (log10) ([5]; 6700 nM)	level (log10) ([5]; 20000 nM)	level (log10) ([6]; 6700 nM)	level (log10) ([6]; 20000 nM)	level (log10) ([6]; 60000 nM)
BE3C:CD54/ICAM-1	-0.018 ± 0.014	-0.0055 ± 0.0064	-0.0085 ± 0.011	0.015 ± 0.0099	-0.0105 ± 0.025	0.003 ± 0.0028	0.017 ± 0.013	-0.0135 ± 0.025	-0.0185 ± 0.016	0.016 ± 0.034	-0.0125 ± 0.026	0.006 ± 0.013	0.001 ± 0.0028	-0.013 ± 0.034	0.0055 ± 0.015
BE3C:CD87/uPAR	0.0195 ± 0.0064	-0.047 ± 0.027	-0.0335 ± 0.019	-0.0305 ± 0.028	0.0005 ± 0.0035	-0.0055 ± 0.018	-0.13 ± 0.018	-0.0295 ± 0.043	-0.044 ± 0.071	-0.0195 ± 0.093	0.001 ± 0.034	0.008 ± 0.011	0.0105 ± 0.0092	-0.004 ± 0.024	-0.004 ± 0.023
BE3C:CXCL8/IL-8	-0.0515 ± 0.04	0.05 ± 0.086	0.0325 ± 0.046	0.043 ± 0.072	-0.0795 ± 0.044	-0.161 ± 0.0078	-0.3 ± 0.039	-0.0565 ± 0.013	-0.0485 ± 0.026	-0.034 ± 0.083	-0.0175 ± 0.0078	-0.007 ± 0.0057	0.01 ± 0.062	0.0235 ± 0.029	0.0505 ± 0.081
BE3C:CXCL9/MIG	0.0095 ± 0.0021	0.0055 ± 0.028	0.008 ± 0.035	0.015 ± 0.045	-0.0025 ± 0.0064	-0.0005 ± 0.0078	-0.0065 ± 0.0078	-0.008	-0.007 ± 0.0057	0.006 ± 0.0071	-0.0035 ± 0.021	0.003 ± 0.013	-0.0125 ± 0.0064	0 ± 0.0028	-0.0075 ± 0.0064
BE3C:CXCL10/IP-10	-0.0215 ± 0.0035	0.0275 ± 0.091	0.021 ± 0.068	0.034 ± 0.078	-0.016 ± 0.04	-0.086 ± 0.042	-0.235 ± 0.047	-0.0275 ± 0.047	-0.031 ± 0.03	-0.0185 ± 0.056	0.01 ± 0.02	0.0195 ± 0.035	-0.013 ± 0.0071	-0.0065 ± 0.0092	-0.012 ± 0.0042
BE3C:CXCL11/I-TAC	0.0085 ± 0.011	0.0125 ± 0.023	0 ± 0.014	0.0155 ± 0.028	0.0015 ± 0.052	-0.023 ± 0.035	-0.107 ± 0.067	-0.0085 ± 0.0035	-0.0155 ± 0.00071	-0.014 ± 0.021	0.0005 ± 0.015	0.004 ± 0.013	0.0015 ± 0.00071	0.0115 ± 0.005	0.013 ± 0.0014
BE3C:EGFR	-0.01	0.0045 ± 0.052	0.0085 ± 0.043	0.0135 ± 0.049	0.023 ± 0.0057	0.0205 ± 0.033	0.014 ± 0.017	-0.019 ± 0.016	-0.014 ± 0.0099	0.004 ± 0.04	0.014 ± 0.0071	0.0185 ± 0.026	-0.0025 ± 0.0064	-0.0045 ± 0.0064	-0.018 ± 0.0042
BE3C:IL-1alpha	-0.0415 ± 0.03	0.0025 ± 0.016	-0.0125 ± 0.0035	0.003	-0.0195 ± 0.00071	-0.022 ± 0.013	-0.0885 ± 0.016	0.0085 ± 0.012	-0.0105 ± 0.0064	0.0145 ± 0.033	-0.0175 ± 0.005	-0.0185 ± 0.0021	0.024 ± 0.024	0.01 ± 0.051	0.0265 ± 0.066
BF4T:CCL2/MCP-1	-0.073 ± 0.0099	0.0165 ± 0.005	-0.012 ± 0.014	0.002 ± 0.021	-0.0415 ± 0.018	-0.072 ± 0.0085	-0.107 ± 0.0042	0.003 ± 0.011	-0.0025 ± 0.0064	-0.02 ± 0.031	-0.0105 ± 0.0092	0.011 ± 0.02	0.005 ± 0.0014	-0.0095 ± 0.0035	0.014 ± 0.0042

Source: the supplement of paper PMC10331698
